From article PMC4329833 (Journal of Medicinal Chemistry, 2014)

Experiments:
rat nNOS [1] = biological target: T1, rat nNOS (Rattus norvegicus, UniProt P29476); test: biochemical
serotonin 5-HT1A = biological target: T2, serotonin 5-HT1A (Homo sapiens, UniProt P08908); test: NIMH PDSP CNS receptor radioligand binding
T2 sequence (P08908 1-422): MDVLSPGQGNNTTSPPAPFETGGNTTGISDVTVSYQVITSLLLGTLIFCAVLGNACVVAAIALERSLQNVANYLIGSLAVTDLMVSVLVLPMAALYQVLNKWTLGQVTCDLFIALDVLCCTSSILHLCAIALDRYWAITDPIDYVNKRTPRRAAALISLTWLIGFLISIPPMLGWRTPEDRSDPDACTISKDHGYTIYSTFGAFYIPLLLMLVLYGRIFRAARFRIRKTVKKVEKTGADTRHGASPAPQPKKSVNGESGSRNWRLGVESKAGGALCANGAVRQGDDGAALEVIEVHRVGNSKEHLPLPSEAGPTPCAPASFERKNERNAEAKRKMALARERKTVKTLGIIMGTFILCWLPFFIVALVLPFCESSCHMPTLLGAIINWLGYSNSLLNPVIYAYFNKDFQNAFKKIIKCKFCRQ

serotonin 5-HT2A = serotonin 5-HT2A (Homo sapiens, UniProt P28223); test: NIMH PDSP CNS receptor radioligand binding
Sequence of serotonin 5-HT2A (P28223 whole entry): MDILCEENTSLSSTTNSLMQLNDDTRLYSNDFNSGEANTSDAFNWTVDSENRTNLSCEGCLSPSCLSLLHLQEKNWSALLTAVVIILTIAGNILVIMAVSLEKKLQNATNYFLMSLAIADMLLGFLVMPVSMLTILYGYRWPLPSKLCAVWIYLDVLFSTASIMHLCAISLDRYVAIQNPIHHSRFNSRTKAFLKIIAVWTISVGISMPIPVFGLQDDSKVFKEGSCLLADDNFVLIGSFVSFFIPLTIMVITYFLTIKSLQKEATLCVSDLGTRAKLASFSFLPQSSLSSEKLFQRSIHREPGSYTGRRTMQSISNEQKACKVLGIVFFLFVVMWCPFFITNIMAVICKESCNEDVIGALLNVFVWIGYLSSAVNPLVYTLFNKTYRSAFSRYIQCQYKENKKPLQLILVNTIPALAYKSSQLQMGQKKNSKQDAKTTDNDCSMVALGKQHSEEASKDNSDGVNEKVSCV

CYP3A4 = CYP3A4 (Homo sapiens, UniProt P08684); test: CYP inhibition assay in human liver microsomes; type: in vitro ADME; details: 10 μM
Sequence of CYP3A4 (P08684 whole entry): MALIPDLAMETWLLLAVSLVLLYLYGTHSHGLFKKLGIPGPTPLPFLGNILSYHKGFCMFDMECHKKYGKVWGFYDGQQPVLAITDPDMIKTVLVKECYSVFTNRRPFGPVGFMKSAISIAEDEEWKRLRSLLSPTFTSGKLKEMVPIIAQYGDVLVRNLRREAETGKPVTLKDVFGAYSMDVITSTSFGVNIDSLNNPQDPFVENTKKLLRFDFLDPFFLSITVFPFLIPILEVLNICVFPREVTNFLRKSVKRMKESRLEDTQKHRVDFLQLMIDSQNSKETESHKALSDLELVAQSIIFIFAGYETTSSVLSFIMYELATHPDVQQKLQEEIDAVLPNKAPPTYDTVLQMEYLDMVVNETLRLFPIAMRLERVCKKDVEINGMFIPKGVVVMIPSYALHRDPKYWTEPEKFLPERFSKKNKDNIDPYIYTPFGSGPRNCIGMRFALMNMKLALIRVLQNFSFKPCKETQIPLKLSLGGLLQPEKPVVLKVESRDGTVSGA

CYP2C19 = CYP2C19 (Homo sapiens, UniProt P33261); test: CYP inhibition assay in human liver microsomes; type: in vitro ADME; details: 10 μM
Sequence of CYP2C19 (P33261 whole entry): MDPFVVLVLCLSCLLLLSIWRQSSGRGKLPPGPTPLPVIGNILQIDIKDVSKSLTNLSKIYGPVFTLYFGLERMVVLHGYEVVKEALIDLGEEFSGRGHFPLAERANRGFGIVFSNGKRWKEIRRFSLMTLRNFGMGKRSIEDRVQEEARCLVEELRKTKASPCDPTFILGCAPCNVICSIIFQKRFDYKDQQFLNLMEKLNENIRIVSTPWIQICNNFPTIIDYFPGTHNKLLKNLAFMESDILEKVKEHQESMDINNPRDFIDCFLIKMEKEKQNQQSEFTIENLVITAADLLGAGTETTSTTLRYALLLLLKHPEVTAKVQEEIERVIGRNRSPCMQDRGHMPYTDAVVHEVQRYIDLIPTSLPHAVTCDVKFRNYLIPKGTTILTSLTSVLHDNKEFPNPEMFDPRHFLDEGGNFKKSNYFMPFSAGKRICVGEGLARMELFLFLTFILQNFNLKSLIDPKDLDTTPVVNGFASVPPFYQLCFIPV

dopamine D3 receptor = dopamine D3 receptor (Homo sapiens, UniProt P35462); test: NIMH PDSP CNS receptor radioligand binding
Sequence of dopamine D3 receptor (P35462 whole entry, species assumed): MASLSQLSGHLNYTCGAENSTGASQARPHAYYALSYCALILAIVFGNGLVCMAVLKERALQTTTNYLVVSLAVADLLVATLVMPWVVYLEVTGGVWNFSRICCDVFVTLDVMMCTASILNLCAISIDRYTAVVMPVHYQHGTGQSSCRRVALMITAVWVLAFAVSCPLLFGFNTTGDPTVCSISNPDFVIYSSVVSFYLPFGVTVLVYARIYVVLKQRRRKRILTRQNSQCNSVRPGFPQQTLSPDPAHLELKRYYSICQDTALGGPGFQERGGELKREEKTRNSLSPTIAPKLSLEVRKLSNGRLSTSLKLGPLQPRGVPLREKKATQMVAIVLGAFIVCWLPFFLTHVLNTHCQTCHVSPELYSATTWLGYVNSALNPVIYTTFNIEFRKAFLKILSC

CYP2D6 = CYP2D6 (Homo sapiens, UniProt P10635); test: CYP inhibition assay in human liver microsomes; type: in vitro ADME; details: 10 μM
Sequence of CYP2D6 (P10635 whole entry): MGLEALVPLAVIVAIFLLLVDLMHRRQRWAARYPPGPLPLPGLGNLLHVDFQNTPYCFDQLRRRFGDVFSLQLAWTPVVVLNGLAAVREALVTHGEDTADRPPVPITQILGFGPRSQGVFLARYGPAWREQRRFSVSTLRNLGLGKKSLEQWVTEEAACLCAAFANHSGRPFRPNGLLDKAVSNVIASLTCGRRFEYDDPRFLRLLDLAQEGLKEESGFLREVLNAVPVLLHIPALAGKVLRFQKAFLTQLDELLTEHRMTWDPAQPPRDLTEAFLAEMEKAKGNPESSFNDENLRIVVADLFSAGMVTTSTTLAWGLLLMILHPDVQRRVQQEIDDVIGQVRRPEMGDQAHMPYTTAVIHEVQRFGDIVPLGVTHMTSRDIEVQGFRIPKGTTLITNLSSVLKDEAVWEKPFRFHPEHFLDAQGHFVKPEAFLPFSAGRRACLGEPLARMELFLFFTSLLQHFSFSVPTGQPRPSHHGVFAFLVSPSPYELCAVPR

[2] = cited from earlier work
rat nNOS [3] = biological target: T1, rat nNOS; details: ratio of respective Ki values (eNOS vs rnNOS)

T1 sequence (P29476 whole entry): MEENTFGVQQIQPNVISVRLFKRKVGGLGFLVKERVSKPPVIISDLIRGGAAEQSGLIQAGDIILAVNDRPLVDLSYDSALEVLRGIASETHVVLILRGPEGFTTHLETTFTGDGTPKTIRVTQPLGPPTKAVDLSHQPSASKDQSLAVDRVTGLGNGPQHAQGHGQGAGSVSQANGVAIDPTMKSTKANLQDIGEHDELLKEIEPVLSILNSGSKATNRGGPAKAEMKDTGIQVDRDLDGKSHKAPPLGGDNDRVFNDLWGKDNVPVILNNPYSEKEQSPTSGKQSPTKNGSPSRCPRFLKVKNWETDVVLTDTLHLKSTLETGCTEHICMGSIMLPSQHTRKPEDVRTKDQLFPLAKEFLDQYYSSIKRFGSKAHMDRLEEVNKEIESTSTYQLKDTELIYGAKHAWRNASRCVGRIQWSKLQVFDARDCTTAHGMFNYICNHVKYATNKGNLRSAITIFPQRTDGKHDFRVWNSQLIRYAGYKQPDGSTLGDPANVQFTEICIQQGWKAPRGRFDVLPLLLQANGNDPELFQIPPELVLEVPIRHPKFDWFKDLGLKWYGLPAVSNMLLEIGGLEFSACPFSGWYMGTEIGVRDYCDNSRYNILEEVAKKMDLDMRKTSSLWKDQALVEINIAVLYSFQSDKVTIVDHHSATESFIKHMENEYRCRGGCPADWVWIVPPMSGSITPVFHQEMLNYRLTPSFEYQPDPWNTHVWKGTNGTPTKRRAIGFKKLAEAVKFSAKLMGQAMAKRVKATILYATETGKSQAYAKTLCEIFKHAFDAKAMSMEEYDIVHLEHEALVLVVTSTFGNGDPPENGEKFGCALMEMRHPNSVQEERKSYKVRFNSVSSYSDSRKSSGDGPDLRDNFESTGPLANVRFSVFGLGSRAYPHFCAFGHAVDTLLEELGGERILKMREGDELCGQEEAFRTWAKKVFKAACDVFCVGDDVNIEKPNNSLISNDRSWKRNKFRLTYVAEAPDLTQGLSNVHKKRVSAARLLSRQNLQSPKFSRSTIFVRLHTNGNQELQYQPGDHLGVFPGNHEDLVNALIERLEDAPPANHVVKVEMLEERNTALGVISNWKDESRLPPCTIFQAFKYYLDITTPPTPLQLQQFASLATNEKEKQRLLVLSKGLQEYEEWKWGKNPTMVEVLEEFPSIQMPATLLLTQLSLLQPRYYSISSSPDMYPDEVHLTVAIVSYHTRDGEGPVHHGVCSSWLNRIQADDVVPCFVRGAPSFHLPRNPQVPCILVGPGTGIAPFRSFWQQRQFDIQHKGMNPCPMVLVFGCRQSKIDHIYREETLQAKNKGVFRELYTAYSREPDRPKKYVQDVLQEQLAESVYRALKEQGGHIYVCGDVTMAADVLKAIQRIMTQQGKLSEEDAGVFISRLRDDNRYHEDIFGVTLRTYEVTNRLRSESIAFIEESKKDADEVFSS

Q: Which Ki (rat nNOS [1]) does the source give for `Fc1cccc(CCN2CCN(c3ccnc(-n4ccnc4)n3)CC2)c1` [Compound 4, 4-[4-(3-Fluorophenethyl)-1-piperazyl]-2-(1H-imidazol-1-yl)pyrimidine] here?
A: ~5000 nM

Q: With `Cl.Fc1cccc(CCCNCCc2ccnc(-n3ccnc3)n2)c1` [Compound 9, N-2-[2-(1H-Imidazol-1-yl)pyrimidin-4-yl]ethyl-3-(3-fluorophenyl)propan-1-amine Dihydrochloride] as the molecule, how does the Ki (serotonin 5-HT1A) read?
A: ≥ 500 nM

Q: And the Ki (serotonin 5-HT2A)?
A: ≥ 500 nM

Q: And the “decrease of CYP3A4 activity” value (CYP3A4)?
A: more than 70%

Q: And the “decrease of CYP2C19 activity” value (CYP2C19)?
A: more than 70%

Q: And the Ki (dopamine D3 receptor)?
A: ≥ 500 nM

Q: And the “decrease of CYP2D6 activity” value (CYP2D6)?
A: more than 70%

Q: With `c1c[nH]cn1` [imidazole] as the molecule, how does the “pKa of conjugate acid” value [2] read?
A: 6.9

Q: Which selectivity n/e (rat nNOS [3]) does the source give for `Cl.Fc1cccc(CCNCCNc2ccnc(-n3ccnc3)n2)c1` [Compound 5, N^1-[2-(1H-Imidazol-1-yl)pyrimidin-4-yl]-N^2-(3-fluorophenethyl)ethane-1,2-diamine Trihydrochloride] here?
A: 100
